# Experiments:
# hES cells [1] = assay: GCTM-2 quantification (alkaline phosphatase-coupled secondary antibody, OD 405 nm); type: cell-based, human; conditions: for effect of inhibitor on the effect of PDGF and S1P on GCTM2 expression: 7 days, U0126, DMS 3 μM; for GCTM2 levels, PDGF isoform added with S1P / more GCMT2+ than the control cells: Example 1; for more GCMT2+ than the control cells: on MEF, 8 days, S1P 10 μM; for more GCMT2+ than the control cells / more GCMT2+ than the controls: serum-free; for more GCMT2+ than the controls: treated for 2 weeks
# Description: hES-3 cells plated with MEF, were fixed in ethanol and immunostained with GCTM-2 and then with an alkaline phosphatase-coupled secondary antibody (Dako). The activity of alkaline phosphatase was detected by adding a solution of 4-nitrophenyl phosphate (Roche, Mannheim, Germany), followed by reading the optical density (OD) at 405 nm. In order to validate the technique as a relevant indicator of the proportion of GCTM-2 positive cells, standard curves were done with the teratocarcinoma cell line GCT27C4, known to express GCTM-2.
# Cells were fixed in 100% ethanol and immunostained with GCTM-2 followed by alkaline phosphatase-coupled secondary antibodies (Dako). Alkaline phosphatase activity was detected by adding a solution of 4-nitrophenyl phosphate (Roche), and the concentration of the reaction product was determined by reading the optical density (OD) at 405 nm. In order to validate the technique as an accurate indicator of the proportion of GCTM-2 positive cells, standard curves were carried out with the embryonal carcinoma cell line GCT27C4, known to express GCTM-2 ^20.
# ERK1/2 (Erk1 and Erk2) = assay: ERKs phosphorylation in hES cells (Western blot, anti-active MAP kinase); type: cell-based, human; conditions: for phosphorylation of ERKs in hES cells: 5 min incubation, LPA, PDGF 20 ng/ml, serum-depleted, without MEF
# Protocol: hES-3 cells plated without MEF for 24 hrs were depleted of serum for a further 18 hrs. Cells pre-treated or not with U0126 (Sigma, 30 μM, 1 hr), were incubated in the presence of the different agents for 5 min and were lysed by removal of the supernatants and addition of a reducing loading buffer containing 1 mM sodium orthovanadate (Sigma). Protein lysates (approx. 80 μg) were separated by SDS-polyacrylamide gel electrophoresis (10% polyacrylamide, w/v), transferred to nitrocellulose (Hybond-nitrocellulose, Amersham) and immunoblotting was carried out using rabbit polyclonal anti-active mitogen-activated protein (MAPK) antibodies raised against a dually phosphorylated MAPK peptide (Promega, Madison, Wis., USA). Peroxidase-coupled secondary antibody (Dako) was detected by exposure of autoradiographic films in the presence of a chemiluminescent detection reagent (ECL, Amersham). Stripping of antibodies was achieved and membranes were then reprobed with rabbit polyclonal anti-ERK1/2 antibodies (Promega), and then with peroxidase-coupled secondary antibodies (Dako). Membranes probed with either rabbit polyclonal anti-active p38 (Promega) or rabbit polyclonal anti-active JNK (Promega) antibodies were also performed, using the same procedure as described
# For immunoblot analysis, cells were transferred into 24 well plates (8 colonies per well) without MEFs, and 24 hr later, were grown in the absence of serum for 18 hrs.
# In some experiments, cells were pre-treated for 1 hr with U0126 (30 μM) or for 18 hrs with PTX (100 μg/ml).
# hES3 cells were lysed following removal of the supernatants by addition of a reducing loading buffer (2% SDS, 62.5 mM Tris pH 6.8, 0.1 M DTT, 0.01% bromophenol blue) containing 1 mM sodium orthovanadate. Samples were boiled for 10 min and centrifuged at 13000 g for 15 min, and protein lysates (approx. 80 μg) were separated by SDS-polyacrylamide gel electrophoresis (10% polyacrylamide, w/v). Proteins were transferred to nitrocellulose (Hybond-ECL, Amersham) and immunoblotting was carried out with rabbit polyclonal anti-active mitogen-activated protein (MAPK) antibodies raised against a dually phosphorylated MAPK peptide (Promega, Madison, Wis., USA). Peroxidase-coupled secondary antibody (Dako) was detected by exposure of autoradiographic films in the presence of a chemiluminescent detection reagent (ECL, Amersham). Stripping of antibodies was achieved by incubating the membrane during 30 min at 50° C. in a buffer containing 100 mM mercaptoethanol, 2% SDS, 62.5 mM Tris-HCl pH 6.7. The membrane was then reprobing with rabbit polyclonal anti-ERK1/2 antibodies (Promega), and then with peroxidase-coupled secondary antibodies (Dako).
# hES cells [2] = assay: Direct observation of hES cell colonies in serum-free medium (spontaneous differentiation); type: cell-based, human; conditions: for colony morphology / spontaneous differentiation vs control: Example 1, PDGF 20 ng/ml; for colony morphology / spontaneous differentiation vs control / colony size, morphology / spontaneous differentiation vs controls: on MEF, serum-free; for colony morphology / spontaneous differentiation vs control / colony size, morphology / spontaneous differentiation vs controls / colony growth / differentiation vs control: LPA up to 50 μM; for colony size, morphology / spontaneous differentiation vs controls: Example 2, 2 weeks, PDGF-AB 20 ng/ml; for colony growth / differentiation vs control: 12 days
# Protocol: (§1) hES-3 cells were cultured as previously described^1. The serum-free culture medium consisted of DMEM (without sodium pyruvate, glucose 4500 mg/l, Invitrogen, Mount Waverley, VIC, Australia) supplemented with insulin/transferrin/selenium 1%, β-mercaptoethanol 0.1 mM, NEAA 1%, glutamine 2 mM, Hepes 25 mM, penicillin 50 U/ml and streptomycin […] (all from Invitrogen). Medium was changed every 2 days and cells were passaged every week. S1P and dihydro-S1P were obtained from Biomol (Plymouth Meeting, Pa., USA) and were dissolved in methanol. LPA was obtained from Sigma (Castle Hill, NSW, Australia) and was dissolved in ethanol. Extemporaneous dilutions of all lipids were made in water containing 0.1% fatty acid-free bovine serum albumin (BSA) (Sigma). Human PDGF-AB, PDGF-AA, PDGF-BB were from PreproTech Inc. (Rocky Hill, N.J., USA). RT-PCR Experiments.
# as §1, with “Media” for “Medium”, “USA).” for “USA) and were dissolved in methanol.”, “Australia).” for “Australia) and was dissolved in ethanol.”, “(Sigma). S1P and dihydro-S1P were used at […].” for “(Sigma).”, “USA) and were used at 20 ng/ml.” for “USA). RT-PCR Experiments.”
# For direct observation, hES-3 cells were coated into 12-well plates (3 colonies per well), with or without mouse embryonic feeders (MEFs). The day following the plating, cells were incubated with the different agents in serum free medium containing insulin, transferring and selenium. Media was changed the 2nd day and then every 2 days.
# hES cells [3] = assay: GCTM-2 / PCNA double immunostaining and cell counting of mechanically dissociated hES cells; type: cell-based, human; conditions: for percentage of cells GCTM2+: mechanically dissociated, PDGF 10 ng/ml
# Protocol: In some experiments, hES-3 cells plated onto 8-well chamber slides, with or without MEF, were fixed in ethanol or paraformaldehyde (for PDGFR) the day after plating. In others, hES-3 cells were mechanically dissociated, in order to obtain a monolayer culture and then plated onto 8-well chamber slides without MEF and were fixed in ethanol 4 days after the first treatment. Immunostaining was performed using the following antibodies: anti human PDGFR-α or PDGFR-β(R&D Systems Inc.), GCTM-2, and/or PCNA (Chemicon, Boronia, VIC, Australia), TRA-1-60, Oct-4. Nuclei were evidenced by Hoechst-33342. Slides were mounted and observed by fluorescent microscopy with a Leica microscope at X10, X20 and X40. Specificity was verified by the absence of any staining in the negative controls. In some experiments, cells were counted to determine the ratio of cells within the global population.
# For immunostaining, hES-3 cells were coated on chamber slides after mechanical dissociation, in order to obtain a monolayer culture. The day following the plating, cells were incubated with the different agents in a media depleted in serum. Media was changed the 2nd day and the cells were fixed 4 days after the first treatment.
# Cells were washed in PBS, fixed with MeOH, and immunostaining was performed, using the specific stem cell marker antibody GCTM-2, and the specific cell proliferation marker PCNA. Cells were then washed and the nucleuses were stained with Hoechst-33342 (1 μg/ml). Slides were mounted and then observed by fluorescent microscopy. Cells were then counted in order to determine the ratio of proliferating stem cells within the overall population.
# [4] = system: SPK activity in hES cells; assay: Sphingosine kinase activity in hES cells after incubation with PDGF; type: cell-based, human; conditions: PDGF 20 ng/ml
# Protocol: hES-3 cells plated without MEF for 24 hr and depleted of serum for a further 18 hr were incubated in the presence of PDGF (20 ng/ml) for various time periods and were harvested and lysed by sonication (2 W for 30 s at 4° C.) in lysis buffer containing 50 mM Tris/HCl (pH 7.4), 10% glycerol, 0.05% Triton X-100, 150 mM NaCl, 1 mM dithiothreitol, 2 mM Na3VO4, 10 mM NaF, 1 mM EDTA and protease inhibitors (Complete™, Roche, Mannheim, Germany). SPK activity was determined using D-erythro-sphingosine and […] as substrates, as previously described^19. Protein concentrations in cell homogenates were determined with Coomassie Brilliant Blue reagent (Bio-Rad, Regent Park, NSW, Australia) using bovine serum albumin as standard.
# SPK in MEF = assay: Sphingosine kinase activity in MEF after incubation with PDGF; type: cell-based, mouse; conditions: PDGF 20 ng/ml
# [5] = Example 4, on MEFs, serum-depleted, S1P 10 μM
# [6] = Example 1, 4 days, no MEF, no serum, S1P 10 μM
# [7] = Example 1, 4 days, no MEF, no serum
molecule,measurement,setting,value
"CCCCCCCCCCCCC/C=C/[C@@H](O)[C@H](CO)N(C)C [DMS, dimethylsphingosine]",effect of inhibitor on the effect of PDGF and S1P on GCTM2 expression,hES cells [1],inhibited the effect of PDGF and S1P
PDGF-AA: Human platelet-derived growth factor isoform AA; only binds to PDGFR-a,"GCTM2 levels, PDGF isoform added with S1P",hES cells [1],120.5±4.5 % of control
same,"GCTM2 expression, PDGF isoform with S1P","hES cells [1]; Example 2, 2 weeks, isoform 20 ng/ml together with S1P",220.3±49.0 % of control
lysophosphatidic acid [LPA],phosphorylation of ERKs in hES cells,ERK1/2 (Erk1 and Erk2); S1P 10 μM,stimulated the phosphorylation of ERKs
same,colony morphology / spontaneous differentiation vs control,"hES cells [2]; 8 days, S1P 10 μM",did not have an obvious effect on growth of the colonies
same,"colony size, morphology / spontaneous differentiation vs controls",hES cells [2]; S1P 10 μM,no obvious effect on size or morphology of hES cell colonies
same,colony growth / differentiation vs control,hES cells [2]; [5],did not seem to affect the growth of the colonies
same,"effect on cell differentiation, hES cells grown without MEFs",hES cells [2]; Example 4,lack of effect
"CCCCCCCCCCCCCCC[C@@H](O)[C@@H](N)COP(=O)(O)O [dihydro-S1P, dihydrosphingosine-1-phosphate]",GCTM2 expression,"hES cells [1]; Example 2, 2 weeks, dihydro-S1P, PDGF 20 ng/ml",223.0±27.0 % of control
"PDGF: Human platelet-derived growth factor, isoform AB, from PreproTech; ligand of class III tyrosine kinase receptor",phosphorylation of ERKs in hES cells,ERK1/2 (Erk1 and Erk2); S1P 10 μM,stimulated the phosphorylation of ERKs
same,colony morphology / spontaneous differentiation vs control,"hES cells [2]; 8 days, S1P 10 μM",the colonies appeared flatter and less differentiated
same,"colony size, morphology / spontaneous differentiation vs controls",hES cells [2]; S1P 10 μM,the colonies appeared flatter and less differentiated
same,"GCTM2 levels, PDGF isoform added with S1P",hES cells [1],125.7±9.7 % of control
same,more GCMT2+ than the control cells,hES cells [1]; PDGF 20 ng/ml,16.6±7.0%
same,more GCMT2+ than the controls,hES cells [1]; Example 2,50.3±18.4%
same,percentage of cells GCTM2+,hES cells [3]; [6],53.7±13.2%
same,proliferating rate of hES cells (PCNA) vs control,hES cells [3]; [7],no statistically significant difference
same,duration of enhanced SPK activity,[4],at least 60 min
same,SPK activity relative to basal values,[4]; after 30 min of incubation,1.6 fold
same,activation of SPK in MEF,SPK in MEF,did not induce a significant statistical activation of SPK
"CCCCCCCCCCCCC/C=C/[C@@H](O)[C@@H](N)COP(=O)(O)O [S1P, sphingosine-1-phosphate]",concentration dependence of ERKs stimulation,"ERK1/2 (Erk1 and Erk2); 5 min, various concentrations of S1P",in a concentration dependant manner
same,phosphorylation of ERKs in hES cells,ERK1/2 (Erk1 and Erk2); S1P 10 μM,stimulated the phosphorylation of ERKs
same,duration of ERKs stimulation,ERK1/2 (Erk1 and Erk2); S1P 10 μM,at least 60 min
same,colony morphology / spontaneous differentiation vs control,"hES cells [2]; 8 days, S1P 10 μM",the colonies appeared flatter and less differentiated
same,"colony size, morphology / spontaneous differentiation vs controls",hES cells [2]; S1P 10 μM,the colonies appeared flatter and less differentiated
same,colony morphology / differentiation vs control condition,"hES cells [2]; Example 4, on MEFs, serum-depleted, 8 days, S1P 10 μM",the colonies were more compact and less differentiated
same,colony growth / differentiation vs control,hES cells [2]; [5],more obvious after 12 days of treatment
same,"effect on cell differentiation, hES cells grown without MEFs",hES cells [2]; Example 4,inhibitory effect
same,more GCMT2+ than the control cells,hES cells [1]; PDGF 20 ng/ml,16.6±4.1%
same,more GCMT2+ than the controls,hES cells [1]; Example 2,18.0±17.0%
same,percentage of cells GCTM2+,hES cells [3]; [6],47.9±3.8%
same,proliferating rate of hES cells (PCNA) vs control,hES cells [3]; [7],no statistically significant difference
same,proliferating rate of hES cells (PCNA) vs control,"hES cells [3]; Example 4, 4 days without serum, S1P 10 μM",no marked difference
same,cells GCTM-2 positive,"hES cells [3]; Example 4, 4 days without serum, S1P 10 μM (control 16%)",68%
N#CC(=C(/N)Sc1ccccc1N)/C(C#N)=C(\N)Sc1ccccc1N [U0126],effect of MEK inhibitor on agonist-stimulated phosphorylation of ERKs,"ERK1/2 (Erk1 and Erk2); U0126 30 μM, 1 hr pre-treatment",totally inhibited
same,effect of inhibitor on the effect of PDGF and S1P on GCTM2 expression,hES cells [1],totally inhibited
